Measurements taken from patent publication US20200071361A1, “ENGINEERED ANTIMICROBIAL AMPHIPHILIC PEPTIDES AND METHODS OF USE” (priority 2017, published 2020).
Converted amounts (≈) assume the structure as drawn.

Experiments:
Assay in all cases: Broth microdilution MIC (Table 2)
Format in all cases: cell-based
[1] = tested on: Acinetobacter baumannii ATCC 19606 (non-MDR); conditions: ATCC19606, read-out: MIC
Method: (§1) Each peptide was formulated in PBS buffer prior to testing. Peptides of SEQ ID NO:5 and SEQ ID NO:8 were brought up in 100% DMSO with 0.002% polysorbate-80 at 1.28 mg/mL (40× the highest final test concentration of 32 mcg/mL). Final test concentration of DMSO was 2.5% in the assay at the first dilution for those two compounds.
(§2) Mueller Hinton II broth (MHB II; BD; Lot Nos. 6258541 and 7143896) was used for MIC testing of aerobic organisms. 0.002% polysorbate 80 (P80) was added to the test medium.
(§3) MIC values were determined using a broth microdilution procedure described by CLSI (1, 3). Automated liquid handlers (Multidrop 384, Labsystems, Helsinki, Finland; Biomek 2000 and Biomek FX, Beckman Coulter, Fullerton Calif.) were used to conduct serial dilutions and liquid transfers.
(§4) To prepare the drug mother plates, which would provide the serial peptide dilutions for the replicate daughter plates, the wells of columns 2-12 of standard 96-well microdilution plates (Costar 3795) were filled with 150 μl of the designated diluent for each row of peptide. The test articles and comparator compounds (300 μl at 40× the highest concentration to be tested) were dispensed into the appropriate wells in column 1. The Biomek 2000 was then used to make 2-fold serial dilutions in the mother plates from column 1 through column 11. The wells of Column 12 contained no drug and served as the organism growth control wells for the assay.
(§5) The daughter plates were loaded with 185 μL per well of MHB II using the Multidrop 384. The daughter plates were completed on the Biomek FX instrument which transferred 5 uL of peptide solution from each well of a mother plate to the corresponding well of each daughter plate in a single step. A standardized inoculum of each test organism was prepared per CLSI methods. The inoculum for each organism was dispensed into sterile reservoirs divided by length (Beckman Coulter), and the Biomek 2000 was used to inoculate the plates. Daughter plates were placed on the Biomek 2000 work surface in reverse orientation so that inoculation took place from low to high drug concentration. The plates were then inoculated with 10 μL of the inoculum resulting in a final cell density of approximately 5×10^5 CFU/mL, per well.
(§6) Plates were stacked 3-4 high, covered with a lid on the top plate, placed in plastic bags, and incubated at 35° C. for 16 to 20 hrs. Following incubation, the microplates were removed from the incubator and viewed from the bottom using a plate viewer. […] The MIC was read and recorded as the lowest concentration of peptide that inhibited visible growth of the organism.

[2] = tested on: Acinetobacter baumannii ATCC BAA-1797 (MDR); conditions: ATCCBAA1797, read-out: MIC
Method: as §1, §2, §3, §4, §5, §6

[3] = tested on: Enterococcus faecalis ATCC 29212 (VSE; QC); conditions: ATCC29212, read-out: MIC
Method: as §1, §2, §3, §4, §5, §6

[4] = tested on: Enterococcus faecalis ATCC 700802 (V583 VRE); conditions: read-out: MIC
Method: as §1, §2, §3, §4, §5, §6

[5] = tested on: Enterococcus faecium ATCC 51559 (VRE); conditions: read-out: MIC
Method: as §1, §2, §3, §4, §5, §6

[6] = tested on: Escherichia coli ATCC 25922 (QC); conditions: ATCC25922
Method: as §1, §2, §3, §4, §5, §6

[7] = tested on: Escherichia coli ATCC BAA-2471 (NDM-1); conditions: ATCCBAA2471
Method: as §1, §2, §3, §4, §5, §6

[8] = tested on: Klebsiella pneumoniae ATCC BAA-1705 (KPC); conditions: ATCCBAA1705
Method: as §1, §2, §3, §4, §5, §6

[9] = tested on: Pseudomonas aeruginosa ATCC 27853 (non-MDR; QC); conditions: ATCC27853, read-out: MIC
Method: as §1, §2, §3, §4, §5, §6

[10] = tested on: Pseudomonas aeruginosa ATCC BAA-2109 (MDR); conditions: ATCCBAA2109
Method: as §1, §2, §3, §4, §5, §6

[11] = tested on: Staphylococcus aureus ATCC 29213 (MSSA; QC); conditions: read-out: MIC
Method: as §1, §2, §3, §4, §5, §6

[12] = tested on: Staphylococcus aureus ATCC 43300 (MRSA); conditions: read-out: MIC
Method: as §1, §2, §3, §4, §5, §6

[13] = tested on: Staphylococcus aureus NRS382 (USA100; HA-MRSA); conditions: read-out: MIC
Method: as §1, §2, §3, §4, §5, §6

[14] = tested on: Streptococcus agalactiae ATCC 13813; conditions: ATCC13813, read-out: MIC
Method: as §1, §2, §3, §4, §5, §6

[15] = tested on: Streptococcus pneumoniae ATCC 49619 (QC); conditions: ATCC49619, read-out: MIC
Method: as §1, §2, §3, §4, §5, §6

[16] = tested on: Streptococcus pyogenes ATCC 49399; conditions: ATCC49399, read-out: MIC
Method: as §1, §2, §3, §4, §5, §6

Work on C[C@H]1COc2c(N3CCN(C)CC3)c(F)cc3c(=O)c(C(=O)O)cn1c23 [Levofloxacin] yielded an MIC [1] of 0.25 µg/mL (≈ 0.692 µM), an MIC [2] of 0.25 µg/mL (≈ 0.692 µM) and an MIC [3] of 1 µg/mL (≈ 2.77 µM). The MIC [4] was 0.5 µg/mL (≈ 1.38 µM), the MIC [5] was 16 µg/mL (≈ 44.3 µM) and the MIC [6] was 0.015 µg/mL (≈ 0.0415 µM). For the same molecule, the MIC [7] was 64 µg/mL (≈ 177 µM), the MIC [8] was 64 µg/mL (≈ 177 µM) and the MIC [9] was 1 µg/mL (≈ 2.77 µM). The MIC [10] was 1 µg/mL (≈ 2.77 µM), the MIC [11] was 0.25 µg/mL (≈ 0.692 µM) and the MIC [12] was 0.25 µg/mL (≈ 0.692 µM). For the same molecule, the MIC [13] was 8 µg/mL (≈ 22.1 µM), the MIC [14] was 0.5 µg/mL (≈ 1.38 µM) and the MIC [15] was 1 µg/mL (≈ 2.77 µM). The MIC [16] was 0.5 µg/mL (≈ 1.38 µM).
